Active and inactive are the calls of the source.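 Rule for the calls: active = compounds giving half or more protection of infected cells from virus-caused growth loss, again on retest; inactive = the rest.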

The test system of this assay is CEM cells HIV-1 protection, formazan growth assay. The assay is described as follows: NCI AIDS Antiviral Assay. The settings on record: for IC50: measured here: growth of uninfected CEM cells. The method in brief:
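Human CEM cells, uninfected and HIV-1-infected, exposed to five drug concentrations; growth measured by soluble formazan assay and scored as percent protection from infection, with protecting compounds retested.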

Consider `CC(C)N1C(C)[C@@H](c2ccccc2)O[P@@]1(=O)CC1=CCCCC1` (stereo partly drawn), for which the result was inactive.
As for `O=C1Nc2noc(=O)nc2NO1`, the EC50 is > 200 µM and the IC50 is > 200 µM.
`CC(=O)Oc1c2c(cc3c1C(=O)NC1C3=CC(O)[C@@H](OC(C)=O)[C@H]1OC(C)=O)OCO2` (stereo partly drawn): the outcome was inactive.
As to `O=[N+]([O-])/C(C(Cl)=C(Cl)Cl)=C(/Cl)SCc1ccccc1`, the EC50 is > 200 µM and the IC50 worked out at 11 µM.
Regarding `CC(C)C1/C(=N/O)CC(c2ccccc2)N(N=O)C1c1ccccc1` (stereo not drawn), the EC50 was > 200 µM and the IC50 is 66.1 µM.
For `O=S(=O)(OCCSS(=O)(=O)c1ccccc1)c1ccccc1` the same measures were > 437 µM and > 437 µM.
Take `C[N+](C)(C)CC1CCCc2ccccc2C1=O` (stereo not drawn): the outcome was inactive.
As to `c1cc2c3ccsc3c3sccc3c2s1`, the EC50 was > 200 µM and the IC50 was > 200 µM.
Consider `Cc1ccccc1C(C#N)/C(=N/NC(=O)c1cc2ccccc2cc1O)C(=O)Nc1cccc(Cl)c1` (stereo not drawn), for which the EC50 is > 191 µM and the IC50 is 4.9 µM.
On to `CN(C)C(=O)Oc1c(-c2ccccc2)c(=O)n2c3ccccc3n3c(=O)n(C)c(=O)c1c23`, for which the EC50 is > 1.26 µM and the IC50 was > 1.26 µM.
For the molecule `CSc1nnc(CF)c(=O)[nH]1`, the EC50 was > 200 µM and the IC50 is > 200 µM.
Consider `[Cu+2].c1nnc(N2CNCCNCN(c3nnc[n-]3)CNCCNC2)[n-]1`, for which the EC50 is > 200 µM and the IC50 was > 200 µM.
As for `COC(=O)Nc1nc2cc(OC)c(OC)cc2c(=O)[nH]1`, the EC50 is > 200 µM and the IC50 worked out at 8.71 µM.
For `O=C1OCc2c1cc1cc3c(cc1c2-c1ccc2c(c1)OCO2)OCO3`, the outcome was inactive.
As to `Clc1ccc(Cc2nc3ccccc3s2)c(Cl)c1`, the EC50 is > 33.9 µM and the IC50 was found to be 26.3 µM.
In the case of `C[P+]1(C)CCc2c1ccc1ccccc21`, the outcome was inactive.
On to `CN1C(=O)Cn2c(nn(Cc3ccccc3)c(=O)c2=O)-c2cc(Cl)ccc21`, for which the EC50 is 42.7 µM and the IC50 came out at 67.6 µM.
On the same counts, the results for `N#C/C(C(=O)Nc1ccc(Cl)cc1)=C(/N)N1CCOCC1` are > 200 µM and > 200 µM.
In the case of `Nc1nc(Cl)cc(NCC2(CO)COC2)n1`, the EC50 is > 200 µM and the IC50 was > 200 µM.
Regarding `COC(OC)[C@@H]1OC[C@H](n2ccc(=O)[nH]c2=O)[C@H]1O`, the EC50 is > 200 µM and the IC50 is > 200 µM.
As for `CSc1nc2c(c(=O)[nH]1)N=C(c1ccc(Cl)cc1)CC(c1ccccc1)N2` (stereo not drawn), the EC50 is > 200 µM and the IC50 was 33.1 µM.
Regarding `COC(=O)C(=O)C(C(=O)OC)C(=O)C(=O)Nc1c(Cl)cc([N+](=O)[O-])cc1Cl` (stereo not drawn), the EC50 is > 23.4 µM and the IC50 was > 23.4 µM.
Take `CNP(=S)(Oc1cc(Cl)c(Cl)cc1Cl)N1CCN(c2ccc(Cl)cc2)CC1` (stereo not drawn): the EC50 was > 36.3 µM and the IC50 was found to be 21.4 µM.
For `NCCCNCCSSCCNCCCN` the same measures were > 200 µM and 10.5 µM.
On the same counts, the results for `CCC1=[N+]([O-])C(C)(C)NC1(C)C` are > 200 µM and > 200 µM.
On the same counts, the results for `O=C(/C=C1/Nc2ccc([N+](=O)[O-])cc2NC1O)c1cccc([N+](=O)[O-])c1` (stereo not drawn) are > 20.4 µM and > 20.4 µM.
Regarding `CCCCCCCCCCCCCCCCCCOCC(CCP(=O)(CP(=O)(O)O)Oc1ccccc1)OCCCCCCCCCCCCCCCCCC` (stereo not drawn), the result was inactive.
For the molecule `CC1=CCCC(C)C1(C)CC/C(C)=C/CC/C(=C/CS(=O)(=O)CCN=C(N)N)CO` (stereo not drawn), the EC50 was > 81.3 µM and the IC50 stood at 15.1 µM.
For `COc1cccc(/C=N/NC(=O)CN(C)C)c1O` the same measures were > 200 µM and 51.3 µM.
In the case of `CC1N=C(SCC(=O)c2ccc(Cl)cc2)N2C(C)N=C(SCC(=O)c3ccc(Cl)cc3)N12` (stereo not drawn), the EC50 is > 19.5 µM and the half-inhibitory concentration (IC50) is > 19.5 µM.
In the case of `COc1ccc(/C=C/c2ccnc3ccccc23)cc1`, the EC50 was 0.0631 µM and the IC50 was 14.1 µM.
For `O=C1/C(=C/c2ccc(Br)s2)NC(=S)N1CN1CCOCC1` the same measures were > 200 µM and 36.3 µM.
On the same counts, the results for `Cc1ccc(C2(O)c3ccccc3C(=O)N(C)C2(O)c2ccc(C)cc2)cc1` (stereo not drawn) are > 200 µM and 12.9 µM.
For `COC(=O)/C(=N\NC(N)=O)C(C#N)c1ccccc1` (stereo not drawn) the same measures were > 692 µM and > 692 µM.
`COC(=O)NNC(c1ccc(Cl)cc1)c1ccc(Cl)cc1`: the EC50 was > 200 µM and the IC50 worked out at 30.9 µM.
Take `CSc1ncnc2c1cnn2CCCCO`: the EC50 is > 200 µM and the IC50 is > 200 µM.
As for `COc1ccc(P2(=S)OC(C)(C)C(C)(C)O2)cc1`, the EC50 is > 200 µM and the IC50 is > 200 µM.
On to `CC(=O)Nc1ccc(S(=O)(=O)[N-]C2C(=O)c3ccccc3C(=O)C2[n+]2ccccc2)cc1` (stereo not drawn), for which the EC50 was > 200 µM and the IC50 stood at 37.2 µM.
Regarding `COc1c(C(=O)O)cccc1-c1cccc(C(=O)NCCN(CCNC(=O)c2cccc(-c3cccc(C(=O)O)c3OC)c2OC)CCNC(=O)c2cccc(-c3cccc(C(=O)O)c3OC)c2OC)c1OC`, the EC50 was > 200 µM and the IC50 was > 200 µM.
Turning to `O=C1NC(=O)C(=Cc2ccccc2[N+](=O)[O-])C(=O)N1`, the outcome was inactive.
With `O=C1CNc2cc(N3CCCCC3)ccc2N1`, the EC50 is > 200 µM and the IC50 amounted to 66.1 µM.
On the same counts, the results for `N#Cc1c2c(cn3c1nc1ccccc13)CCCC2` are > 200 µM and 107 µM.
On to `Nc1ccc(N=Nc2ccc(N=Nc3ccc(N=Nc4cc(S(=O)(=O)O)c5ccccc5c4O)c4ccc(S(=O)(=O)O)cc34)c3ccc(S(=O)(=O)O)cc23)cc1`, for which the result was active.
On the same count and under the same terms, the value for `CC1=C(C(=O)NCc2ccccc2)C(/C=C/c2ccccc2)C(C(=O)NCc2ccccc2)=C(C)N1` was “inactive”.
For `COc1cc2nncc(SCc3ccccc3)c2cc1OC`, the EC50 is > 85.1 µM and the IC50 was > 85.1 µM.
With `O=[N+]([O-])c1ccc2c(c1)nc1n2C(c2c(F)cccc2F)SC1` (stereo not drawn), the EC50 was 186 µM and the IC50 is 195 µM.
Consider `CCCCCCCCCCCc1c(O)c(=O)c2c(oc3c(=O)c(CCCCCCCCCCC)c(O)c(=O)c3n2-c2ccc(N(C)C)cc2)c1=O`, for which the EC50 was > 2.04 µM and the IC50 was > 2.04 µM.
On to `CCOC(=S)SCCSC`, for which the EC50 was > 200 µM and the IC50 was > 200 µM.
Take `CC(=O)c1ccc2c(c1)oc(=O)n2CCN(C)C`: the EC50 was > 200 µM and the IC50 was 141 µM.
For `COc1ccc(C2CC(=O)c3c(OC(C)=O)cc(OC(C)=O)cc3O2)cc1OC(C)=O` (stereo not drawn) the same measures were > 200 µM and 7.76 µM.
Consider `CCOC(=O)CN1C(=O)c2cc([N+](=O)[O-])cc3cc([N+](=O)[O-])cc(c23)C1=O`, for which the outcome was inactive.
As to `C#CCOCn1cnc2ncnc(Cl)c21`, the EC50 is > 1120 µM and the IC50 is > 200 µM.
On the same counts, the results for `C=CC1(C)CN(Cc2ccccc2)C(C(=O)OCC)O1` (stereo not drawn) are > 26.3 µM and > 26.3 µM.
For `CNC(=O)CN(CC(N)=O)C(N)=O` the same measures were > 191 µM and > 191 µM.

The EC50 is the concentration needed to bring the measured effect to its halfway point. A word on the IC50: it is the concentration that gives 50% inhibition.

The record behind these values is PubChem BioAssay AID179 (DTP/NCI, 2004).
